Patent publication US20180264134A1, “A COMPOSITION OF GOLD NANOPARTICLES HAVING ANTIMICROBIAL PEPTIDES BOUND ON THEIR SURFACE FOR USE THE TREATMENT OF WOUND HEALING OR IN THE TREATMENT OF ISCHEMIC OR VASCULAR DISEASES OR IN THE TREATMENT OF SKIN DISORDERS” (priority 2015, published 2018)
Entries after “also recorded” stand apart in the source; their conditions may differ.

Assays:
Format in all cases: cell-based, human
HaCaT cells [1] = assay: Whole-cell patch-clamp recordings of HaCaT cells
Experimental: In an embodiment, the NP bioactivity was carried out as follows: electrophysiological recordings. Whole-cell patch-clamp recordings of HaCaT cells were performed using borosilicate glass patch pipettes with a resistance of 2-5 MΩ and compensating the series resistance by 50-60% with a List EPC-7 amplifier, as described previously^56. The pipettes were filled with (in mM): 135 K-gluconate, 10 CsCl, 0.4 NaH2PO4, 0.73 CaCl2, 1 MgCl2, 1 EGTA, and 14 HEPES (pH 7.4). The external solution contained (mM): 140 NaCl, 3 KCl, 2 CaCl2, 1 MgCl2, 15 HEPES and 10 glucose (pH 7.4). Cells were rapidly perfused as previously described and all experiments were carried out at RT (22-25° C.). The currents were recorded at −70 mV, filtered (2-pole Butterworth filter, −12 dB/octave) and digitized to a personal computer at a sampling rate of 1 kHz for analysis using pCLAMP software (AXON instruments). Charge transfer was calculated by the integration of the area under the current in the first 100 s (Q100) from the beginning of the exposure to Au NPs, LL37 or LL37-Au NPs in the absence or presence of apyrase (darker background; 20 U/mL; Sigma).

HaCaT cells [2] = assay: Scratch assay in HaCaT
Experimental: Scratch Assay in HaCaT. HaCaT cells (passage 35-40) were seeded at a density of 2×10^4 cells/well in fibronectin-coated 96-well plate in DMEM supplemented with 1% (v/v) penicillin and streptomycin and 10% (v/v) FBS. After 48 h, cells were firstly starved for 15 h in DMEM with 0.5% FBS and then incubated with LL-37 (1 μg/mL), LL-37 AUNPs and AUNPs (200 μg/mL) for 5 h at 37° C. and 5% CO2. All the chemical inhibitors for FPRL1, EGFR, ADAM17 and Purinergic receptor were added into cells 1 hour before and for all the incubation time with LL37, LL37-Au NPs or AuNPs. After treatments, cells were washed twice with PBS to remove non-internalized NPs and a scratch was created with a sterile pipet tip. The detached cells were washed twice with PBS and then plates were re-coated with fibronectin (10 μg/mL in starvation medium) for 1 hour at 37° C. At this point (t=0), the first images were taken on In Cell Microscope 2000 (GE Healthcare) (objective 2×). Then cells were washed and maintained in starvation medium up to 72 h. During this time, cell migration was monitored and more images were taken up to 72 h. Scratch areas were quantified using the AxioVision software (Carl Zeiss). Wound areas were normalized by the initial area (n=8 images). On the other hand, to test the prolonged effect of LL37-Au NPs on HaCaT migration, cells were plated in fibronectin-coated 24-well plate (2×10^5 cells/well), after 48 h cells were starved for 15 h in DMEM with 0.5% FBS and then the scratch was made with a sterile pipet tip. Only after the cells were incubated with LL-37 (1 μg/mL), LL37-Au NPs and AuNPs (15 μg/mL) in starvation medium up to 96 h. During this time, cell migration was monitored and images were taken and scratch area quantified.
In an embodiment, the NP bioactivity was carried out by scratch assay. Keratinocytes (passage 35-40) were seeded at a density of 2×10^4 cells/well in fibronectin-coated 96-well plate in DMEM supplemented with 1% (v/v) penicillin and streptomycin and 10% (v/v) FBS. After 48 h, cells were initially starved for 15 h in DMEM with 0.5% FBS, inactivated with mitomycin (5 μg/mL) for 2 h, and then incubated with LL37 (1 μg/mL), LL37-Au NPs or Au NPs (both at 200 μg/mL) for 5 h at 37° C. and 5% CO2. In case of chemical inhibition, the chemical inhibitors for FPRL1 (WRW4, Calbiochem, 10 μM), EGFR (Erlotinib HCL, OSI-744, Selleck Chemicals, 2 nM), ADAM17 (Marimastat, Sigma, 10 μM), P2X (PPADS, Sigma, 100 μM), for P2X7 (A-740003, Sigma, at a concentration of 500 nM), were added to the cells 1 h before the incubation with LL37 peptide and LL37-Au NPs and then maintained during the assay. […] After the 5 h treatment, cells were washed twice with PBS to remove non-internalized NPs and a scratch was created with a sterile pipette tip. The detached cells were washed twice with PBS and then plates were re-coated with fibronectin (10 μg/mL in starvation medium) for 1 h at 37° C. Cells were washed and maintained in starvation medium up to 72 h. Cell migration was monitored overtime by a in Cell Microscope 2000 (GE Healthcare) (objective 2×). The cells treated with LL37 peptide were cultured with starvation medium containing LL37 for the entire duration of the experiment. Scratch areas were quantified using the AxioVision software (Carl Zeiss). Wound areas were normalized by the initial area (n=6 images). In case of siRNA knock-down studies, on-target plus human ADAM17 siRNA or P2X7R siRNA (both from Dharmacon) were used to silence ADAM17 or P2X7 before performing the scratch assay. Keratinocytes were transfected with 50 nM siRNA using 0.25 μL of Lipofectamine RNAiMAX (Life Technologies) for 24 h in antibiotic-free complete medium before starting the scratch assay. […]

ERK1/2 = ERK1/2 phosphorylation in HaCaT (ELISA); settings: LL37 5 μg/mL; LL37-Au NPs 200 μg/mL
Experimental: In an embodiment the detection of EGFR and ERK1/2 phosphorylation, can be perform by: the activation of EGFR receptor in HaCaT (80% confluency, in 6-well plates) was induced by starving the cells for 24 h in DMEM supplemented with 1% (v/v) penicillin and adding soluble LL37, LL37-Au NPs and Au NPs for a given period of time. Following treatment, the plates were immersed in ice and the medium was discarded. Then the proteins were isolated from the cells . . . . The levels of EGFR (phosphorylated EGFR and total EGFR) were determined by ELISA kit (R&D Systems). The activation of ERK signaling pathways in HaCaT (80% confluency, in one 96-well cell culture clear-bottom black microplate) were obtained starving the cells for 24 h in DMEM supplemented with 1% (v/v) penicillin and then stimulating them with soluble LL37 (5 μg/mL), LL37-Au NPs and Au NPs (200 μg/mL). After treatments the level of ERK were determined using a phosphoprotein and total protein ELISA kit (R&D Systems ref. KCB1018) according to the manufacture's instructions. Data were acquired with a BioTek synergy MX microplate reader.

In the case of `CC[C@H](C)[C@H](NC(=O)[C@H](CCCCN)NC(=O)[C@H](CCC(=O)O)NC(=O)[C@H](CCCCN)NC(=O)[C@H](CO)NC(=O)[C@H](CCCCN)NC(=O)[C@H](CCCNC(=N)N)NC(=O)[C@H](Cc1ccccc1)NC(=O)[C@H](Cc1ccccc1)NC(=O)[C@H](CC(=O)O)NC(=O)CNC(=O)[C@H](CC(C)C)NC(=O)[C@@H](N)CC(C)C)C(=O)NCC(=O)N[C@@H](CCCCN)C(=O)N[C@@H](CCC(=O)O)C(=O)N[C@@H](Cc1ccccc1)C(=O)N[C@@H](CCCCN)C(=O)N[C@@H](CCCNC(=N)N)C(=O)N[C@H](C(=O)N[C@H](C(=O)N[C@@H](CCC(N)=O)C(=O)N[C@@H](CCCNC(=N)N)C(=O)N[C@H](C(=O)N[C@@H](CCCCN)C(=O)N[C@@H](CC(=O)O)C(=O)N[C@@H](Cc1ccccc1)C(=O)N[C@@H](CC(C)C)C(=O)N[C@@H](CCCNC(=N)N)C(=O)N[C@@H](CC(N)=O)C(=O)N[C@@H](CC(C)C)C(=O)N[C@H](C(=O)N1CCC[C@H]1C(=O)N[C@@H](CCCNC(=N)N)C(=O)N[C@H](C(=O)N[C@@H](CCC(=O)O)C(=O)N[C@@H](CO)C(=O)N[C@@H](CS)C(N)=O)[C@@H](C)O)C(C)C)[C@@H](C)CC)C(C)C)[C@@H](C)CC` [LL37], the “effect of apyrase on charge transfer / inward current” value (HaCaT cells [1]; apyrase 20 U/mL) is reported as “no decrease”, the inward current (HaCaT cells [1]; holding potential −70 mV) is reported as “elicited an inward current” and the “effect of P2X7 antagonist A-740003 on migration” value (HaCaT cells [2]; A-740003 500 nM) is reported as “inhibited; also recorded: significant decrease”. For the same compound, the “effect of EGFR inhibitor Erlotinib on migration” value (HaCaT cells [2]; Erlotinib 2 nM) was “decreased significantly”, the migration of keratinocytes (HaCaT cells [2]; LL37 1 μg/mL, NPs 200 μg/mL, listed as LL37 peptide) was “induced the migration; also recorded: induce the migratory properties” and the “effect of ADAM inhibitor Marimastat on migration” value (HaCaT cells [2]; Marimastat 10 μM) was “significantly decreased; also recorded: significant decrease”. For the same compound, the “effect of purinergic antagonist PPADS on migration” value (HaCaT cells [2]; PPADS 100 μM) was “inhibited; also recorded: significant decrease”, the “effect of FPRL-1 antagonist WRW4 on migration” value (HaCaT cells [2]; WRW4 10 μM) was “no measurable effect” and the “effect of ADAM17 siRNA knockdown on migration” value (HaCaT cells [2]; siRNA ADAM17) was “decreased the migratory properties; also recorded: reduced migratory effect”. For the same compound, the “effect of P2X7 siRNA knockdown on migration” value (HaCaT cells [2]; siRNA P2X7) was “inhibited; also recorded: reduced migratory effect” and the “time of peak ERK1/2 phosphorylation” value (ERK1/2) was 4 min.
